Measured values: patent JP2009062322A, “肝実質細胞再生促進剤” (Minophagen Pharmaceutical Co Ltd, priority 2007, dated 2009)

System: primary cultured hepatic parenchymal cells (初代培養肝実質細胞)
Assay: Proliferation of primary cultured rat hepatic parenchymal cells: DNA synthesis (3H-thymidine incorporation) and number of nuclei
Conditions: for EC50: Rattus norvegicus; for proliferation-promoting effect: compound alone, low-density culture, 4 h, result in words

Structure (SMILES) | EC50 | proliferation-promoting effect | proliferation-promoting effect relative to glycyrrhetinic acid (by EC50) (fold stronger than glycyrrhetinic acid (グリチルレチン酸), by EC50 value)
CC1(C)[C@@H](O)CC[C@]2(C)[C@H]3CC=C4[C@@H]5C[C@@](C)(C(=O)O)CC[C@]5(C)CC[C@@]4(C)[C@]3(C)CC[C@@H]12 [化合物(11), 11−デオキソグリチルレチン酸] | 0.04 nM | 用量依存的に促進効果を示した | ~100 倍 (fold)
C[C@]1(C(=O)O)CC[C@]2(C)CC[C@]3(C)C(=CC[C@@H]4[C@@]5(C)CC[C@H](O)[C@](C)(CO)[C@@H]5CC[C@]43C)[C@@H]2C1 [化合物(12)] | 4 nM | 用量依存的に促進効果を示した | –
CC1(C)[C@@H](O)CC[C@]2(C)[C@H]3C(=O)C=C4[C@@H]5C[C@@](C)(C(=O)O)CC[C@]5(C)CC[C@@]4(C)[C@]3(C)CC[C@@H]12 [グリチルレチン酸, reference compound] | 5 nM | 用量依存的に促進効果を示した | –
